Test results: publication PMC12442081, “Combating Fuel Biocontamination: Tailored Antimicrobial Peptides and an Innovative Delivery Strategy” (ACS Applied Bio Materials, 2025)
Where two headings read alike, the source gives them in different places. Where no end group is shown, it is not given here.

Columns and labels:
[1] = test system: Pseudomonas aeruginosa (PA); assay: Effectiveness of peptides on spiked fuel samples (aqueous layer); format: cell-based; design: key: (+) =1 (implying peptide activity in fuel environment); (X) = 0 (implying no activity in the desired range, indicated by microbial proliferation); Fuel x = -1(implying no activity in fuel environment); details: initial screening in spiked fuel
Experimental: (§1) To study the partitioning of microbes in fuel tanks, filter-sterilized fuel was mixed with BH medium in a 1:1 (v/v) ratio. The inoculum was added to the aqueous phase at the bottom to simulate growth in the aqueous layer of fuel tanks and incubated aerobically at 30 °C for 30 days. Visible growth was assessed, and aliquots from both the aqueous and fuel phases were plated on nutrient agar plates to evaluate microbial growth. Peptides were initially added to the aqueous layer of microbially spiked fuel samples for screening the effectiveness in the fuel environment. The study was further extended over a longer duration, and incubated under aerobic conditions at 30 °C for 30 days. Microbial growth was monitored at regular intervals by plating aliquots from the aqueous layer on the nutrient agar plates.
(§2) The engineered peptides were administered at their respective MICs to the aqueous layer of simulated fuel samples, and samples from both the aqueous and solvent (fuel) layers were removed at intervals of 7, 14, 21, and 30 days and plated on LBA plates to assess cell viability (Table S5).

[2] = test system: Sphingomonas paucimobilis (SP); assay: as above; format: cell-based; design: key: (+) =1 (implying peptide activity in fuel environment); (X) = 0 (implying no activity in the desired range, indicated by microbial proliferation); Fuel x = -1(implying no activity in fuel environment); details: initial screening in spiked fuel
Experimental: as §1, §2

[3] = test system: Bacillus licheniformis (BL); assay: as above; format: cell-based; design: key: (+) =1 (implying peptide activity in fuel environment); (X) = 0 (implying no activity in the desired range, indicated by microbial proliferation); Fuel x = -1(implying no activity in fuel environment); details: initial screening in spiked fuel
Experimental: as §1, §2

Hormoconis resinae (HR) = assay: as above; format: cell-based; design: key: (+) =1 (implying peptide activity in fuel environment); (X) = 0 (implying no activity in the desired range, indicated by microbial proliferation); Fuel x = -1(implying no activity in fuel environment); details: initial screening in spiked fuel
Experimental: as §1, §2

[4] = test system: Macrococcus caseolyticus (MC); assay: as above; format: cell-based; design: key: (+) =1 (implying peptide activity in fuel environment); (X) = 0 (implying no activity in the desired range, indicated by microbial proliferation); Fuel x = -1(implying no activity in fuel environment); details: initial screening in spiked fuel
Experimental: as §1, §2

[5] = test system: Micrococcus yunnanensis (MY); assay: as above; format: cell-based; design: key: (+) =1 (implying peptide activity in fuel environment); (X) = 0 (implying no activity in the desired range, indicated by microbial proliferation); Fuel x = -1(implying no activity in fuel environment); details: initial screening in spiked fuel
Experimental: as §1, §2

Roseomonas mucosa (RM) = assay: as above; format: cell-based; design: key: (+) =1 (implying peptide activity in fuel environment); (X) = 0 (implying no activity in the desired range, indicated by microbial proliferation); Fuel x = -1(implying no activity in fuel environment); details: initial screening in spiked fuel
Experimental: as §1, §2

[6] = test system: Dermacoccus nishinomiyaensis (DN); assay: as above; format: cell-based; design: key: (+) =1 (implying peptide activity in fuel environment); (X) = 0 (implying no activity in the desired range, indicated by microbial proliferation); Fuel x = -1(implying no activity in fuel environment); details: initial screening in spiked fuel
Experimental: as §1, §2

Kocuria rosea (KR) = assay: as above; format: cell-based; design: key: (+) =1 (implying peptide activity in fuel environment); (X) = 0 (implying no activity in the desired range, indicated by microbial proliferation); Fuel x = -1(implying no activity in fuel environment); details: initial screening in spiked fuel
Experimental: as §1, §2

[7] = test system: microbial clusters MY, KR, DN, MC, BL, RM, SP, PA, HR; assay: Broad-spectrum activity score (in-house scoring matrix); details: sum over 9 microbial clusters: (+) = 1, (X) = 0, Fuel x = -1
Experimental: Table S4. Summarizing the broad-spectrum activity of the peptides, considering the MIC value/ efficacy to control microbial growth upon fuel co-incubation
Peptides Bacterial clusters Fungal
Actinobacteria Firmicutes Proteobacteria Asco- […]
Peptides identified based on the scoring matrix, where (+) =1 (implying peptide activity in fuel environment); (X) = 0 (implying no activity in the desired range, indicated by microbial proliferation); Fuel x = -1(implying no activity in fuel environment).
Clearly, P17 is the best performing peptide in vitro across diverse microbial phyla as well as when incubated in the fuel environment. Based on the activity of the selected peptides, the best

[8] = test system: Macrococcus caseolyticus (MC) ATCC 13548; format: cell-based
Experimental: (§3) All of the bacterial species were grown overnight at 37 °C in LB broth. 10^7 CFU/mL of cells were resuspended in fresh culture and grown until the mid log phase. , The bacterial cells were adjusted to a concentration of 5 × 10^5 CFU/mL to quantify the MIC. Equal volumes of the respective bacterial cultures were incubated with the serially diluted peptides in 96-well microtiter plate and incubated overnight at 37 °C in ambient air. Microorganisms without peptides were treated as the positive control, while uninoculated broth was used as the negative control. The MIC was taken as the lowest peptide concentration at which observable bacteria growth was inhibited, as measured by a microplate reader (Biotek Synergy H1 microplate reader). Experiments were performed in triplicates, and the mean MIC values were determined. A similar study was performed to understand the effect of peptide purity, i.e., ranging from 70 to 95%, on the peptide MIC.

[9] = test system: Micrococcus yunnanensis (MY) ATCC 12698; format: cell-based
Experimental: as §3

[10] = test system: Pseudomonas aeruginosa (PA) ATCC 39327; format: cell-based
Experimental: as §3

[11] = test system: Sphingomonas paucimobilis (SP); format: cell-based
Experimental: as §3

[12] = test system: Bacillus licheniformis (BL) ATCC 14580; format: cell-based
Experimental: as §3

[13] = test system: Dermacoccus nishinomiyaensis (DN) ATCC 29093; format: cell-based
Experimental: as §3

[14] = HPLC retention time as a function of peptide hydrophobicity; format: physicochemical; details: chromatographic, Polaris 5 C18-A reverse phase, 0.1% TFA water / 0.1% TFA acetonitrile gradient, 30 min, 300 μM peptide
Experimental: The purity of the peptides was ascertained by high-performance liquid chromatography (HPLC) using Polaris 5 C18-A […] × 4.6 mm reverse phase Zorbax columns from Agilent Technologies. The buffer system contained 0.1% (v/v) TFA in 100% water and 0.1% (v/v) TFA in 100% acetonitrile. Each peptide sample contained 300 μM peptides dissolved in an acetonitrile–water (1:4) mixture. A constant gradient of the two solvent systems was used to generate the chromatogram for 30 min after sample injection.

[15] = test system: Kocuria rosea (KR) ATCC 186; format: cell-based
Experimental: as §3

[16] = LB broth, 5 × 10^5 CFU/mL, overnight 37 °C, mean of triplicates, “–” = no detectable activity

In the case of CC[C@H](C)[C@H](N)C(=O)N[C@@H](CC(C)C)C(=O)N[C@H](C(=O)N[C@@H](Cc1c[nH]c2ccccc12)C(=O)N[C@@H](CCCCN)C(=O)N[C@@H](Cc1c[nH]c2ccccc12)C(=O)N1CCC[C@H]1C(=O)N[C@@H](Cc1c[nH]c2ccccc12)C(=O)N[C@@H](Cc1c[nH]c2ccccc12)C(=O)N1CCC[C@H]1C(=O)N[C@@H](Cc1c[nH]c2ccccc12)C(=O)N[C@@H](CCCNC(=N)N)C(=O)N[C@@H](CCCNC(=N)N)C(=O)O)C(C)C [P12], the “activity considering MIC value/efficacy upon fuel co-incubation” value [1] is reported as “X”, the “activity considering MIC value/efficacy upon fuel co-incubation” value [2] is reported as “+” and the “activity considering MIC value/efficacy upon fuel co-incubation” value [3] is reported as “+”. For the same molecule, the “activity considering MIC value/efficacy upon fuel co-incubation” value (Hormoconis resinae (HR)) was “X”, the “activity considering MIC value/efficacy upon fuel co-incubation” value [4] was “+” and the “activity considering MIC value/efficacy upon fuel co-incubation” value [5] was “X”. The “activity considering MIC value/efficacy upon fuel co-incubation” value (Roseomonas mucosa (RM)) was “X”, the “activity considering MIC value/efficacy upon fuel co-incubation” value [6] was “+” and the “activity considering MIC value/efficacy upon fuel co-incubation” value (Kocuria rosea (KR)) was “X”. For the same molecule, the Score [7] was 4, the MIC [8] was 0.9 µM and the MIC [9] was 0.9 µM. The MIC ([10]; ATCC 39327) was 7.8 µM, the MIC [11] was 0.9 µM and the MIC ([12]; ATCC 14580) was 3.9 µM. The MIC [13] was 0.9 µM and the “R t, retention time of peptide on HPLC column as a function of peptide hydrophobicity” value (“R t, retention time of peptide” for short) [14] was 12.903 min.

With CC(C)C[C@H](NC(=O)[C@@H](N)Cc1ccc(O)cc1)C(=O)N1CCC[C@H]1C(=O)N[C@@H](Cc1c[nH]c2ccccc12)C(=O)N[C@@H](CCCCN)C(=O)N[C@@H](Cc1c[nH]c2ccccc12)C(=O)N1CCC[C@H]1C(=O)N[C@@H](Cc1c[nH]c2ccccc12)C(=O)N[C@@H](Cc1c[nH]c2ccccc12)C(=O)N1CCC[C@H]1C(=O)N[C@@H](Cc1c[nH]c2ccccc12)C(=O)N[C@@H](CCCNC(=N)N)C(=O)N[C@@H](CCCNC(=N)N)C(=O)O [P14] the “activity considering MIC value/efficacy upon fuel co-incubation” value [1] was “X”, the “activity considering MIC value/efficacy upon fuel co-incubation” value [2] was “+” and the “activity considering MIC value/efficacy upon fuel co-incubation” value [3] was “+”. The “activity considering MIC value/efficacy upon fuel co-incubation” value (Hormoconis resinae (HR)) was “X”, the “activity considering MIC value/efficacy upon fuel co-incubation” value [4] was “X” and the “activity considering MIC value/efficacy upon fuel co-incubation” value [5] was “X”. For the same molecule, the “activity considering MIC value/efficacy upon fuel co-incubation” value (Roseomonas mucosa (RM)) was “X”, the “activity considering MIC value/efficacy upon fuel co-incubation” value [6] was “X” and the “activity considering MIC value/efficacy upon fuel co-incubation” value (Kocuria rosea (KR)) was “Fuel x”. The Score [7] was 1, the MIC [15] was 0.9 µM and the MIC [11] was 0.9 µM. For the same molecule, the MIC ([12]; ATCC 14580) was 3.9 µM and the “R t, retention time of peptide” value [14] was 12.279 min.

With CC[C@H](C)[C@H](N)C(=O)N[C@@H](CC(C)C)C(=O)N[C@@H](Cc1c[nH]c2ccccc12)C(=O)N[C@@H](Cc1c[nH]c2ccccc12)C(=O)N[C@@H](CCCCN)C(=O)N[C@@H](Cc1c[nH]c2ccccc12)C(=O)N1CCC[C@H]1C(=O)N[C@@H](Cc1c[nH]c2ccccc12)C(=O)N[C@@H](Cc1c[nH]c2ccccc12)C(=O)N1CCC[C@H]1C(=O)N[C@@H](Cc1c[nH]c2ccccc12)C(=O)N[C@@H](CCCNC(=N)N)C(=O)N[C@@H](CCCNC(=N)N)C(=O)O [P15] the “activity considering MIC value/efficacy upon fuel co-incubation” value [1] was “X”, the “activity considering MIC value/efficacy upon fuel co-incubation” value [2] was “+” and the “activity considering MIC value/efficacy upon fuel co-incubation” value [3] was “+”. The “activity considering MIC value/efficacy upon fuel co-incubation” value (Hormoconis resinae (HR)) was “X”, the “activity considering MIC value/efficacy upon fuel co-incubation” value [4] was “+” and the “activity considering MIC value/efficacy upon fuel co-incubation” value [5] was “X”. For the same molecule, the “activity considering MIC value/efficacy upon fuel co-incubation” value (Roseomonas mucosa (RM)) was “X”, the “activity considering MIC value/efficacy upon fuel co-incubation” value [6] was “X” and the “activity considering MIC value/efficacy upon fuel co-incubation” value (Kocuria rosea (KR)) was “X”. The Score [7] was 3, the MIC [8] was 0.9 µM and the MIC [11] was 0.9 µM. For the same molecule, the MIC ([12]; ATCC 14580) was 0.9 µM and the “R t, retention time of peptide” value [14] was 14.327 min.

In the case of ILPWKFPWWPWRR [P9], the “activity considering MIC value/efficacy upon fuel co-incubation” value [1] is reported as “X”, the “activity considering MIC value/efficacy upon fuel co-incubation” value [2] is reported as “X” and the “activity considering MIC value/efficacy upon fuel co-incubation” value [3] is reported as “+”. For the same molecule, the “activity considering MIC value/efficacy upon fuel co-incubation” value (Hormoconis resinae (HR)) was “X”, the “activity considering MIC value/efficacy upon fuel co-incubation” value [4] was “+” and the “activity considering MIC value/efficacy upon fuel co-incubation” value [5] was “+”. For the same molecule, the “activity considering MIC value/efficacy upon fuel co-incubation” value (Roseomonas mucosa (RM)) was “X”, the “activity considering MIC value/efficacy upon fuel co-incubation” value [6] was “+” and the “activity considering MIC value/efficacy upon fuel co-incubation” value (Kocuria rosea (KR)) was “X”. The Score [7] was 4, the MIC [8] was 0.9 µM and the MIC [9] was 0.9 µM. It also gave an MIC ([10]; ATCC 39327) of 31.25 µM, an MIC [11] of 7.8 µM and an MIC ([12]; ATCC 14580) of 3.9 µM. For the same molecule, the MIC [13] was 0.9 µM and the “R t, retention time of peptide” value [14] was 12.610 min.

With ILPWRWPWWPWRR [P10] the “activity considering MIC value/efficacy upon fuel co-incubation” value [1] was “X”, the “activity considering MIC value/efficacy upon fuel co-incubation” value [2] was “X” and the “activity considering MIC value/efficacy upon fuel co-incubation” value [3] was “+”. For the same molecule, the “activity considering MIC value/efficacy upon fuel co-incubation” value (Hormoconis resinae (HR)) was “X”, the “activity considering MIC value/efficacy upon fuel co-incubation” value [4] was “X” and the “activity considering MIC value/efficacy upon fuel co-incubation” value [5] was “X”. For the same molecule, the “activity considering MIC value/efficacy upon fuel co-incubation” value (Roseomonas mucosa (RM)) was “X”, the “activity considering MIC value/efficacy upon fuel co-incubation” value [6] was “X” and the “activity considering MIC value/efficacy upon fuel co-incubation” value (Kocuria rosea (KR)) was “X”. For the same molecule, the Score [7] was 1, the MIC [10, 16] was 31.25 µM and the MIC [11, 16] was 7.8 µM. The MIC [12, 16] was 3.9 µM and the “R t, retention time of peptide” value [14] was 12.417 min.
